From BigSolDB 2.1 come the findings set out here.

The structures appear in SMILES notation.

`Cc1cc(O)c2c(c1)C(=O)c1cc(O)cc(O)c1C2=O`: the solubility (mole fraction) worked out at 8.37e-05 (in ethanol, 283.15 K); 9.39e-05 (in ethanol, 288.15 K); 0.000112 (in ethanol, 293.15 K); 0.000132 (in ethanol, 298.15 K); 0.00015 (in ethanol, 303.15 K); 0.00017 (in ethanol, 308.15 K). For the same compound, the solubility (mole fraction) reads like this: (in ethanol, 313.15 K) 0.000203; (in ethanol, 318.15 K) 0.000231; (in ethanol, 323.15 K) 0.000268; (in water, 283.15 K) 3.2e-08; (in water, 288.15 K) 4.6e-08; (in water, 293.15 K) 6e-08. Moreover, the solubility (mole fraction) runs as follows: (in water, 298.15 K) 8.2e-08; (in water, 303.15 K) 1e-07; (in water, 308.15 K) 1.32e-07; (in water, 313.15 K) 1.79e-07; (in water, 318.15 K) 2.15e-07; (in water, 323.15 K) 2.79e-07.

For the compound `O=C1c2cccc(O)c2C(=O)c2c(O)cc(CO)cc21`, the solubility (mole fraction) was 2.21e-05 (in ethanol, 283.15 K); 2.58e-05 (in ethanol, 288.15 K); 3.15e-05 (in ethanol, 293.15 K); 3.83e-05 (in ethanol, 298.15 K); 4.45e-05 (in ethanol, 303.15 K); 5.2e-05 (in ethanol, 308.15 K). The solubility (mole fraction) by setting is: (in ethanol, 313.15 K) 6.32e-05; (in ethanol, 318.15 K) 7.71e-05; (in ethanol, 323.15 K) 9e-05; (in water, 283.15 K) 3.32e-07; (in water, 288.15 K) 4.51e-07; (in water, 293.15 K) 5.84e-07. Moreover, the solubility (mole fraction) by setting is: (in water, 298.15 K) 8.17e-07; (in water, 303.15 K) 1.15e-06; (in water, 308.15 K) 1.58e-06; (in water, 313.15 K) 2.1e-06; (in water, 318.15 K) 2.72e-06; (in water, 323.15 K) 3.9e-06.
